Converted amounts (≈) assume the structure as drawn.
Target: T1, Human C5 (Homo sapiens, UniProt P01031)
T1 construct: purchased Complement Technology
Assay: Red blood cell (RBC) hemolysis assay, luminescent (Example 24, Table 29)
Type: cell-based
Conditions: sheep EA cells, […] C5-depleted human serum, 0.5 nM human C5, 1 hour at 37° C., luminescence (Table 29)
From the text: Numbers in parenthesis following the compound number indicate alternate enantiomers (as distinguished by retention time during chromatographical separation).

T1 sequence (P01031 19-1676): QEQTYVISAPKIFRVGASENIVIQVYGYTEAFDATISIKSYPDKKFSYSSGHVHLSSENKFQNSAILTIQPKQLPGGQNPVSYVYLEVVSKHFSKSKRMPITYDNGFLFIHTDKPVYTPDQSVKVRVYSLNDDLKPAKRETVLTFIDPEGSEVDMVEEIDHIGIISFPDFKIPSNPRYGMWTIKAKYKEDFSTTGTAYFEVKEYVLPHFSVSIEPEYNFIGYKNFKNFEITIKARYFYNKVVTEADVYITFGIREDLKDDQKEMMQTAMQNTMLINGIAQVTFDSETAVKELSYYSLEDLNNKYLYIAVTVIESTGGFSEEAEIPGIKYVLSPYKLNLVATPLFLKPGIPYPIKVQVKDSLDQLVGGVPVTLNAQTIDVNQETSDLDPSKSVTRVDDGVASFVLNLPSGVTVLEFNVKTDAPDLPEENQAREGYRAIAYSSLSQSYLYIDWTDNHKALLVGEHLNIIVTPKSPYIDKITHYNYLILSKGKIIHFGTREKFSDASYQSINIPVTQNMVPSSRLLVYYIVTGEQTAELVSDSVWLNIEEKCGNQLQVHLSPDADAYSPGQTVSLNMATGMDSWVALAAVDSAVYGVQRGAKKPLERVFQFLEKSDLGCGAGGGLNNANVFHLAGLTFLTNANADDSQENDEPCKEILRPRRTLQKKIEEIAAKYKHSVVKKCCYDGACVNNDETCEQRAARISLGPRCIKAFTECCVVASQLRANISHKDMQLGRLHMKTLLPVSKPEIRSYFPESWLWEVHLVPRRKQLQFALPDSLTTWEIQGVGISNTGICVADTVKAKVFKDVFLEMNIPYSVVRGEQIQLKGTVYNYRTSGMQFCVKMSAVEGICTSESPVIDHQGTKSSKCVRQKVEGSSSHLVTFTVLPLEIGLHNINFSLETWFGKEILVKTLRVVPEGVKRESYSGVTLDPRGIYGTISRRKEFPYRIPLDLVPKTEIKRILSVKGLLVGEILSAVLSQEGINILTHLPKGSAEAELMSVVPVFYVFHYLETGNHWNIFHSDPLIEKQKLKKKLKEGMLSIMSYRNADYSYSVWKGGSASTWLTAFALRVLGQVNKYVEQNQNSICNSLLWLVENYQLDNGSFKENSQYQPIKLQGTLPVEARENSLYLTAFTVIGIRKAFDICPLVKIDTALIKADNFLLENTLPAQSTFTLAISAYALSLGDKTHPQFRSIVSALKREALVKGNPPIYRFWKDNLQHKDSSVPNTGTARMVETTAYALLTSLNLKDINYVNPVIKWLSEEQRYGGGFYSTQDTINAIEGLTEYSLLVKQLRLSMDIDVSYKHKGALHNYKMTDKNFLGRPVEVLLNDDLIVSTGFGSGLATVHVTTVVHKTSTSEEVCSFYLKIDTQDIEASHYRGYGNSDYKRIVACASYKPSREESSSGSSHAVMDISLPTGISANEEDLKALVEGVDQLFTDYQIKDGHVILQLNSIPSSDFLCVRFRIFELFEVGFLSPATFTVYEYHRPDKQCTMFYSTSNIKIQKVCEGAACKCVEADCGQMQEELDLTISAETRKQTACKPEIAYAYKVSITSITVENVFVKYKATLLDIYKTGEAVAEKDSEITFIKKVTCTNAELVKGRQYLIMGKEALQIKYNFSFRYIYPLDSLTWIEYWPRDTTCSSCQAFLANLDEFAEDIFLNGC

Row | SMILES | IC50
1 | CCCCCOc1cc(N2CC[C@H](C)N(Cc3cccc4c3ccn4CC(=O)N3CCCC3)C2=O)ccc1OC [SC0001] | 8.4 nM
2 | CCCCCOc1cc(N2CC[C@H](C)N(Cc3cccc4c3ccn4CC(=O)N3CCO[C@H](COC)C3)C2=O)ccc1OC [SC0002] | 8.7 nM
3 | CCCCCOc1cc(N2CC[C@H](C)N(Cc3cccc4c3ccn4CC(=O)N3CCOC(CN(C)C)C3)C2=O)ccc1OC (stereo partly shown) [SC0007] | 13.6 nM
4 | CCCCCOc1cc(N2CC[C@H](C)N(Cc3cccc4c3ccn4CC(=O)N(C)C)C2=O)ccc1OC [SC0008] | 18.5 nM
5 | CCCCCOc1cc(N2CC[C@H](C)N(Cc3cccc4c3ccn4CC(=O)N3CCO[C@@H](COC)C3)C2=O)ccc1OC [SC0009] | 18.5 nM
6 | CCCCCOc1cc(N2CC[C@H](C)N(Cc3cccc4c3ccn4CC(=O)N(C)c3cccnc3)C2=O)ccc1OC [SC0011] | 25.2 nM
7 | CCCCCOc1cc(N2CC(C)CN(Cc3ccc(CC(=O)N(C)C)cc3OC)C2=O)ccc1OC (stereo not shown) [SC0017] | 28.2 nM
8 | CCCCCOc1cc(N2CC(Cn3cc(-c4cnccn4)cn3)CN(Cc3cc(F)ccc3OC)C2=O)ccc1OC (stereo not shown) [SC0032] | 99.8 nM
9 | CCCCCOc1cc(N2CC(Cn3cccn3)CN(Cc3cc(F)ccc3OC)C2=O)ccc1OC (stereo not shown) [SC0033] | 101 nM
10 | CCCCCOc1cc(N2CC(CN)CN(Cc3cc(F)ccc3OC)C2=O)ccc1OC (stereo not shown) [SC0034] | 115 nM
11 | CCCCCOc1cc(N2CC(Cn3cncn3)CN(Cc3cc(F)ccc3OC)C2=O)ccc1OC (stereo not shown) [SC0035] | 122 nM
12 | CCCCCOc1cc(N2CC(CNC(=O)C(F)(F)F)CN(Cc3cc(F)ccc3OC)C2=O)ccc1OC (stereo not shown) [SC0036] | 122 nM
13 | CCCCCOc1cc(N2CC(COCC(=O)NCCOC)CN(Cc3cc(F)ccc3OC)C2=O)ccc1OC (stereo not shown) [SC0037] | 124 nM
14 | CCCCCOc1cc(N2CC(Cn3cc(-c4ccccn4)nn3)CN(Cc3cc(F)ccc3OC)C2=O)ccc1OC (stereo not shown) [SC0038] | 129 nM
15 | CCCCCOc1cc(N2CC(Cn3cc(CO)nn3)CN(Cc3cc(F)ccc3OC)C2=O)ccc1OC (stereo not shown) [SC0040] | 208 nM
16 | CCCCCOc1cc(N2CC(Cn3cc4ccccc4n3)CN(Cc3cc(F)ccc3OC)C2=O)ccc1OC (stereo not shown) [SC0041] | 251 nM
17 | CCCCCOc1cc(N2CC(Cn3ccnc3)CN(Cc3cc(F)ccc3OC)C2=O)ccc1OC (stereo not shown) [SC0042] | 258 nM
18 | CCCCCOc1cc(N2CC(Cn3ncc4ccccc43)CN(Cc3cc(F)ccc3OC)C2=O)ccc1OC (stereo not shown) [SC0043] | 337 nM
19 | CCCCCOc1cc(N2CC(C(N)=O)CN(Cc3cc(F)ccc3OC)C2=O)ccc1OC (stereo not shown) [SC0044] | 14.9 nM
20 | CCCCCOc1cc(N2CC(C(=O)N3CCS(=O)(=O)C3)CN(Cc3cc(F)ccc3OC)C2=O)ccc1OC (stereo not shown) [SC0045] | 24.3 nM
21 | CCCCCOc1cc(N2CC(C(=O)NC)CN(Cc3cc(F)ccc3OC)C2=O)ccc1OC (stereo not shown) [SC0046] | 33 nM
22 | CCCCCOc1cc(N2CC(C(=O)NCCOC)CN(Cc3cc(F)ccc3OC)C2=O)ccc1OC (stereo not shown) [SC0047] | 36.2 nM

Row | SMILES | IC50
23 | CCCCCOc1cc(N2CC(C(=O)N(C)C)CN(Cc3cc(F)ccc3OC)C2=O)ccc1OC (stereo not shown) [SC0048] | 52.3 nM
24 | CCCCCOc1cc(N2CC(C(=O)N(C)CCO)CN(Cc3cc(F)ccc3OC)C2=O)ccc1OC (stereo not shown) [SC0049] | 68.1 nM
25 | CCCCCOc1cc(N2CC(C(=O)Nc3ncco3)CN(Cc3cc(F)ccc3OC)C2=O)ccc1OC (stereo not shown) [SC0050] | 76.2 nM
26 | CCCCCOc1cc(N2CC(C(=O)N3CCOCC3)CN(Cc3cc(F)ccc3OC)C2=O)ccc1OC (stereo not shown) [SC0051] | 111 nM
27 | CCCCCOc1cc(N2CC(CNC(=O)c3cnco3)CN(Cc3cc(F)ccc3OC)C2=O)ccc1OC (stereo not shown) [SC0053] | 24.2 nM
28 | CCCCCOc1cc(N2CC(CNC(=O)c3ccccn3)CN(Cc3cc(F)ccc3OC)C2=O)ccc1OC (stereo not shown) [SC0054] | 34.8 nM
29 | CCCCCOc1cc(N2CC(CNC(=O)C(=O)N(C)C)CN(Cc3cc(F)ccc3OC)C2=O)ccc1OC (stereo not shown) [SC0055] | 38.2 nM
30 | CCCCCOc1cc(N2CC(CNC(=O)COC)CN(Cc3cc(F)ccc3OC)C2=O)ccc1OC (stereo not shown) [SC0056] | 42.5 nM
31 | CCCCCOc1cc(N2CC(CNC(=O)c3ccnn3C)CN(Cc3cc(F)ccc3OC)C2=O)ccc1OC (stereo not shown) [SC0057] | 47.5 nM
32 | CCCCCOc1cc(N2CC(O)CN(Cc3cc(F)ccc3OC)C2=O)ccc1OC (stereo not shown) [SC0058] | 50.8 nM
33 | CCCCCOc1cc(N2CC(C(=O)O)CN(Cc3cc(F)ccc3OC)C2=O)ccc1OC (stereo not shown) [SC0059] | 57.7 nM
34 | C=C1CN(Cc2cc(F)ccc2OC)C(=O)N(c2ccc(OC)c(OCCCCC)c2)C1 [SC0060] | 22.5 nM
35 | C=C1CN(Cc2ccc(Br)cc2OC)C(=O)N(c2ccc(OC)c(OCCCCC)c2)C1 [SC0062] | 173 nM
36 | CCCCCOc1cc(N2C(=O)CN(Cc3cc(F)ccc3OC)C2=O)ccc1OC [SC0063] | 985 nM
37 | CCCCCOc1cc(N2CC3(CC3)CN(Cc3ccnc4c3ccn4CC(=O)N(C)C)C2=O)ccc1OC [SC0065] | 39 nM
38 | CCCCCOc1cc(N2CC3(CN(C(=O)OCC)C3)CN(Cc3cc(F)ccc3OC)C2=O)ccc1OC [SC0067] | 59 nM
39 | CCCCCOc1cc(N2CC3(CN(Cc4cc(F)ccc4OC)C2=O)CC3(F)F)ccc1OC (stereo not shown) [SC0068] | 77.2 nM
40 | CCCCCOc1cc(N2CC3(COC3)CN(Cc3ccnc4c3ccn4CC(=O)N(C)C)C2=O)ccc1OC [SC0069] | 129 nM
41 | CCCCCOc1cc(N2CC3(CNC3)CN(Cc3cc(F)ccc3OC)C2=O)ccc1OC [SC0070] | 398 nM
42 | CCCCCOc1cc(N2CC3(CN(Cc4cc(F)ccc4OC)C2=O)CN(S(=O)(=O)c2ccc(C)cc2)C3)ccc1OC [SC0071] | 870 nM
43 | CCCCCOc1cc(N2C[C@@H](CO)CN(Cc3cc(F)ccc3OC)C2=O)ccc1OC [SC0072] | 14.2 nM

Target: human C5 complement protein (Homo sapiens, UniProt P01031)
Assay: Surface plasmon resonance (SPR), immobilized human C5, 37° C. (Example 18, Table 24)
Type: binding
Conditions: lowest value obtained where a range of concentrations was analyzed

Sequence of human C5 complement protein (P01031 19-1676): as above

Row | SMILES | Kd
44 | COc1ccc(N2CCCN(Cc3cccc4c3ccn4CC(=O)N(C)C)C2=O)cc1OCCC[C@H]1C[C@@H]1C (racemic) [CU0681] | 2.19 nM
45 | COc1ccc(N2CCCN(Cc3ccnc4c3ccn4CC(=O)N(C)C)C2=O)cc1OCCC[C@H]1C[C@H]1C (racemic) [CU0737] | 8.1 nM
46 | COc1ccc(N2CCCN(Cc3ccnc4c3c(Cl)cn4CC(=O)N(C)C)C2=O)cc1OCCCC(F)(F)C(F)(F)F [CU0502] | 0.32 nM
47 | CCCCCOc1cc(N2CCCN(Cc3ccnc4c3c(Cl)cn4CC(=O)N3CC[C@H](OC)C3)C2=O)ccc1OC [CU0504] | 0.254 nM
48 | CCCCCOc1cc(N2CCCN(Cc3cccc4c3c(I)cn4CC(=O)N(C)C)C2=O)ccc1OC [CU0508] | 0.009 nM
49 | CCCCCOc1cc(N2CCCN(Cc3ccnc4c3c(Cl)cn4CC(=O)N3CCOC3)C2=O)ccc1OC [CU0509] | 0.069 nM
50 | CCCCCOc1cc(N2CCCN(Cc3ccnc4c3c(Cl)cn4CC(=O)N(C)O)C2=O)ccc1OC [CU0514] | 0.093 nM
51 | CCCCCOc1cc(N2CCCN(Cc3ccnc4c3c(Cl)cn4CC(=O)N3CCO[C@@H](CN(C)C)C3)C2=O)ccc1OC [CU0519] | 0.291 nM
52 | CCCCCOc1cc(N2CCCN(Cc3ccnc4c3c(Cl)cn4CC(=O)N(C)OC)C2=O)ccc1OC [CU0527] | 0.041 nM
53 | COc1ccc(N2CCCN(Cc3ccnc4c3c(Cl)cn4CC(=O)N(C)C)C2=O)cc1OCCCC1CC1 [CU0530] | 0.051 nM
54 | CCCCCOc1cc(N2CCCN(Cc3ccnc4c3c(I)cn4CC(=O)N(C)C)C2=O)ccc1OC [CU0535] | 0.053 nM
55 | COc1cc(CNC(=O)c2cocn2)ccc1CN1CCCN(c2ccc(OC)c(OCCCC3CC3)c2)C1=O [CU0537] | 0.039 nM
56 | CCCCCOc1cc(N2CCCN(Cc3ccnc4c3c(Cl)cn4CC(=O)NC3CCOC3)C2=O)ccc1OC (stereo not shown) [CU0561] | 0.14 nM
57 | COc1cc(CNC(=O)c2cocn2)ccc1CN1CCCN(c2ccc(OC)c(OCCCC3CCC3)c2)C1=O [CU0565] | 0.024 nM
58 | COc1cc(CNC(=O)c2cocn2)ccc1CN1CCCN(c2ccc(OC)c(OCCCCC3CC3)c2)C1=O [CU0571] | 0.481 nM
59 | C#CC(C)NC(=O)Cn1cc(Cl)c2c(CN3CCCN(c4ccc(OC)c(OCCCCC)c4)C3=O)ccnc21 (stereo not shown) [CU0572] | 0.074 nM
60 | CCCCCOc1cc(N2CCCN(Cc3ccnc4c3c(Cl)cn4CC(=O)NO)C2=O)ccc1OC [CU0575] | 0.304 nM
61 | CCCCCOc1cc(N2CCCN(Cc3ccnc4c3c(Cl)cn4CCO)C2=O)ccc1OC [CU0576] | 0.221 nM
62 | CCCCCOc1cc(N2CCCN(Cc3ccc(CNC(=O)c4ccco4)cc3OC)C2=O)ccc1OC [CU0597] | 0.115 nM
63 | COc1cc(CC(=O)N2CCOCC2)ccc1CN1CCCN(c2ccc(OC)c(OCCCC3CC3(F)F)c2)C1=O (stereo not shown) [CU0601] | 0.133 nM
64 | CCCCCOc1cc(N2CCCN(Cc3ccc(CNC4CCN(C)C4=O)cc3OC)C2=O)ccc1OC (stereo not shown) [CU0626] | 1.04 nM
65 | CCCCCOc1cc(N2CCCN(Cc3ccc(CC(=O)N4CCCC4C)cc3OC)C2=O)ccc1OC (stereo not shown) [CU0632] | 0.88 nM

System: not listed separately
Assay: Kinetic solubility in PBS pH 7.4, HPLC-UV (Example 21, Table 27)
Type: physicochemical
Conditions: phosphate buffered saline, aqueous buffer, kinetic from dmso stock, 0.5 M PBS, shaken minimum 24 h at approximately 25° C., HPLC-UV 270 nm
Procedure, shortened: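 10 mM DMSO stock diluted into 0.05 M PBS pH 7.4 (5% DMSO final), in triplicate, shaken ≥24 h at ~25 °C, then filtered by centrifugation. Supernatant concentration by HPLC-UV at 270 nm against external DMSO standards (15.6–500.0 μM).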

Row | SMILES | solubility kinetic
66 | CCCCCOc1cc(N2CC[C@H](C)N(Cc3cccc4c3ccn4CC(=O)N3CCCC3)C2=O)ccc1OC [SC0001] | 66 µM (≈ 36.1 µg/mL)
67 | CCCCCOc1cc(N2CC[C@H](C)N(Cc3cccc4c3ccn4CC(=O)N3CCO[C@H](COC)C3)C2=O)ccc1OC [SC0002] | 111 µM (≈ 67.4 µg/mL)
68 | CCCCCOc1cc(N2CC[C@H](C)N(Cc3cccc4c3ccn4CC(=O)N3CCOC(CN(C)C)C3)C2=O)ccc1OC (stereo partly shown) [SC0007] | 445 µM (≈ 276 µg/mL)
69 | CCCCCOc1cc(N2CC[C@H](C)N(Cc3cccc4c3ccn4CC(=O)N(C)C)C2=O)ccc1OC [SC0008] | 103 µM (≈ 53.6 µg/mL)
70 | CCCCCOc1cc(N2CC[C@H](C)N(Cc3cccc4c3ccn4CC(=O)N3CCO[C@@H](COC)C3)C2=O)ccc1OC [SC0009] | 167 µM (≈ 101 µg/mL)
71 | CCCCCOc1cc(N2CC[C@H](C)N(Cc3cccc4c3ccn4CC(=O)N(C)c3cccnc3)C2=O)ccc1OC [SC0011] | 43 µM (≈ 25.1 µg/mL)
72 | CCCCCOc1cc(N2CC(C)CN(Cc3ccc(CC(=O)N(C)C)cc3OC)C2=O)ccc1OC (stereo not shown) [SC0017] | 398 µM (≈ 204 µg/mL)
73 | C=C1CN(Cc2cc(F)ccc2OC)C(=O)N(c2ccc(OC)c(OCCCCC)c2)C1 [SC0060] | < 10 µM
